From US10927107B2, “Phenyl [a]indole[2,3-g]quinolizine compounds, preparation method therefor, pharmaceutical composition, and applications thereof” (Shanghai Institute of Materia Medica, Chinese Academy of …, priority 2016, dated 2021)
Where two headings read alike, the source gives them in different places. One block for each molecule: values may come before it.

Tests used:
HepG2 cells = assay: In vitro lipid-lowering activity: DiI-LDL uptake in HepG2 cells; format: cell-based; details: Homo sapiens, test compound 5 uM, 24 h, DiI-LDL 20 ug/ml, 3 h, FLU of sample group/FLU of blank group x100%, read-out: LDL uptake rate
Protocol: HepG2 cells were inoculated in 24-well plates, cultured in DMEM containing 10% FBS for 24 h or 48 h, and then transferred to DMEM containing 2% defatted serum and cultivated for 24 h. The old culture solution was discarded and replaced with new 2% defatted serum DMEM, and a test compound (the working concentration of which is 5 uM, triplicate for each sample) was added and incubated for 24 h. The old culture solution was abandoned and DMEM containing DiI-LDL (20 ug/ml) was added (300 ul/per 24 wells), incubated for 3 h. DMEM containing DiI-LDL was discarded, and cells were rinsed twice with PBS containing 0.4% BSA, and 3 times with PBS to remove excess DiI-LDL. Isopropanol was added (500 ul/per well of a 24-well plate), and was kept in darkness. After shaken for 20 minutes, 200 ul of supernatant was sucked to a black fluorescent plate, and fluorescence intensity (FLU) was detected at excitation light 520 nm and emission light 578 nm. The experimental results were calculated: LDL uptake rate=(FLU value of sample group to be tested/FLU value of blank group)×100%.

[1] = system: Syrian golden hamsters (high-fat diet, hyperlipidemia model); assay: In vivo lipid-lowering activity in high-fat diet golden hamsters; set-up: species or system Syrian golden hamster; details: for CHOL / HDL-C / LDL-C / TG: high-fat diet, serum; for contents of cholesterol (CHOL), triglyceride (TG) and low density lipoprotein (LDL-C) in the blood: hyperlipidemia model
Protocol: After adaptively feeding Syrian golden hamsters (male, 80-100 g) for a week, all hamsters were fed with high-fat diet. Two weeks later, blood was collected from the orbital venous plexus, serum was separated, and levels of total cholesterol (TC), triglyceride (TG), high-density lipoprotein (HDL-C) and low-density lipoprotein (LDL-C) in serum were measured. They were evenly grouped according to blood lipid levels into […]: model control group, A1 intragastric administration group, A1 intraperitoneal administration group, A5 intragastric administration group, A5 intraperitoneal administration group, A55 intragastric administration group, A55 intraperitoneal administration group, B5 intragastric administration group, B5 intraperitoneal administration group, and the animals in each group were continued to be administered with high fat diet. […] […] Blood lipid levels and body weights were measured every 10 days. After three weeks, the animals were sacrificed and the liver was stored in a −80° C. refrigerator.

Rat pharmacokinetics = format: in vivo; set-up: AUC(0-t) / AUC(0-inf): concentration or dose not given beside the values; details: plasma; for AUC(0-inf): read-out: AUCINF—obs; for clearance: read-out: CL—obs (converted); for MRT inf: read-out: MRTINF—obs; for Vd: read-out: Vss—obs
Protocol: (§1) A1 10 μL of a plasma sample was taken in a centrifuge tube and 100 μL of methanol:acetonitrile (1:1, v/v) was added, vortexed for 1 min, centrifugated (14000 rpm) for 5 min, and 50 μL supernatant was taken, mixed with equal volume of water, and analysised after vortex mixing. The linear range of A1 is: 0.1-300 ng/mL for oral administration and 1-3000 ng/mL for intravenous injection.
as §1, with “A55” for “A1”, “0.3-3000” for “1-3000”

[2] = target: T1, α1A-adrenergic receptor (α1A-AR) (Homo sapiens, UniProt P35348); assay: Antagonistic activity on α1A-AR: calcium fluorescence in HEK293 cells stimulated with phenylephrine; format: cell-based
T1 construct: expressed in transfected cells; host or cells: HEK293
T1 sequence (P35348 1-466): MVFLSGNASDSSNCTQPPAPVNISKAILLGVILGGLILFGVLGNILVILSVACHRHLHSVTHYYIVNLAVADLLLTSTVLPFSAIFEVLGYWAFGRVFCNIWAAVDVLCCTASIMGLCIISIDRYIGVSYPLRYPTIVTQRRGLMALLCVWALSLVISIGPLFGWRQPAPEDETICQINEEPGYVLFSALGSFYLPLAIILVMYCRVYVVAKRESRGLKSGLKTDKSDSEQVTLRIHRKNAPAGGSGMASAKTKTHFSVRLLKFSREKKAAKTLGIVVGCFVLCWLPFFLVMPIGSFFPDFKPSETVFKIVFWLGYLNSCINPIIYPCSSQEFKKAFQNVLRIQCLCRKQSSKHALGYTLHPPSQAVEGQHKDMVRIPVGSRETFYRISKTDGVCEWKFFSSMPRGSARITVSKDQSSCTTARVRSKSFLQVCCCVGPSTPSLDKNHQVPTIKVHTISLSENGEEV
Protocol: HEK293 cells stably expressing α1A-adrenergic receptor (α1A-AR) and G protein […] were seeded in 96-well plates. After 24 hours of culture, the medium was removed, and 40 μL of Hank's balanced salt solution (HBSS: containing 5.4 mM KCl, 0.3 mM Na2HPO4, 0.4 mM KH2PO4, 4.2 mM NaHCO3, 1.3 mM CaCl2, 0.5 mM MgCl2, 0.6 mM MgSO4, 137 mM NaCl, 5.6 mM D-glucose and 250 μM sulfinpyridone, pH 7.4) containing 2 μM of MFluo-4AM was added to each well, and incubated for 45 minutes in an incubator. The dye was aspirated and 50 μL of HBSS containing a test compound or 1% DMSO (negative control) was added and incubated for 10 minutes at room temperature, and then read with Flex Station 3 microplate reader. At the specified time point, 25 μL of agonist phenylephrine (final concentration 30 nM) will be automatically added by the detector into the reaction system, and simultaneously stimulated with 485 nm light, and the change in intensity of fluorescence caused by the change in the intracellular calcium ion concentration was detected at 525 nm. […] The response rate of different doses of the same drug was analyzed by GraphPad Prism software to obtain a dose-response curve and the IC50 value was measured. Each experiment was performed in […].

[3] = abdominal (intraperitoneal) 30 mg/kg once a day for three weeks
[4] = oral (intragastric) 30 mg/kg once a day for three weeks
[5] = HEK293 cells expressing α1A-AR, agonist phenylephrine 30 nM, calcium fluorescence, read-out: α1A-AR/IC50

Compound: COc1ccc2c(c1)c1c(n2CO)CN2CCc3cc(OC)c(OCc4ccccc4)cc3C2C1 (centres unmarked) [Example A1, (2-(Benzyloxy)-3,12-dimethoxy-5,6,14,14a-tetrahydroindolo[3′,2′:4,5]pyridine[2,1-a]isoquinoline-9(8H)-yl)methanol]
activity at 5 µM (HepG2 cells): 148% | CHOL [1, 3]: 9.75 mmol/L | HDL-C [1, 3]: 1.63 mmol/L | LDL-C [1, 3]: 5.25 mmol/L | TG [1, 3]: 8.16 mmol/L | CHOL [1, 4]: 27.93 mmol/L | HDL-C [1, 4]: 2.56 mmol/L | LDL-C [1, 4]: 13.64 mmol/L | TG [1, 4]: 28.61 mmol/L | contents of cholesterol (CHOL), triglyceride (TG) and low density lipoprotein (LDL-C) in the blood [1]: significantly reduced | AUC(0-t) (Rat pharmacokinetics; iv): 1910 ng·h/mL | Cmax (Rat pharmacokinetics; iv): 1110 ng/mL | Tmax (Rat pharmacokinetics; iv): 0.083 h | half-life (Rat pharmacokinetics; iv): 2.58 h | AUC(0-inf) (Rat pharmacokinetics; iv): 1980 ng·h/mL | clearance (Rat pharmacokinetics; iv): 84.2 mL/min/kg | MRT inf (Rat pharmacokinetics; iv): 3.3 h | Vd (Rat pharmacokinetics; iv): 16.6 L/kg | AUC(0-t) (Rat pharmacokinetics; po): 776 ng·h/mL | Cmax (Rat pharmacokinetics; po): 159 ng/mL | Tmax (Rat pharmacokinetics; po): 6 h | bioavailability (Rat pharmacokinetics; po): 20.3%

Compound: COc1ccc2c(c1)c1c(n2CO)CN2CCc3cc(OC)c(OCc4ccc(F)cc4)cc3C2C1 (centres unmarked) [Example A5, (2-((4-fluorobenzyl)oxy)-3,12-dimethoxy-5,6,14,14a-tetrahydroindolo[3′,2′:4,5]pyridine[2,1-a]isoquinoline-9(8H)-yl)methanol]
activity at 5 µM (HepG2 cells): 156% | CHOL [1, 3]: 11.36 mmol/L | HDL-C [1, 3]: 1.77 mmol/L | LDL-C [1, 3]: 6.16 mmol/L | TG [1, 3]: 13.26 mmol/L | CHOL [1, 4]: 15.32 mmol/L | HDL-C [1, 4]: 4.01 mmol/L | LDL-C [1, 4]: 7.44 mmol/L | TG [1, 4]: 15.46 mmol/L | contents of cholesterol (CHOL), triglyceride (TG) and low density lipoprotein (LDL-C) in the blood [1]: significantly reduced

Compound: COc1ccc2c(c1)c1c(n2CO)CN2CCc3cc(OCc4ccccc4)c(OC)cc3C2C1 (centres unmarked) [Example A55, (3-(Benzyloxy)-2,12-dimethoxy-5,6,14,14a-tetrahydroindolo[3′,2′:4,5]pyridine[2,1-a]isoquinoline-9(8H)-yl)methanol]
activity at 5 µM (HepG2 cells): 194% | CHOL [1, 3]: 17.86 mmol/L | HDL-C [1, 3]: 2.98 mmol/L | LDL-C [1, 3]: 9.39 mmol/L | TG [1, 3]: 19.77 mmol/L | CHOL [1, 4]: 11.81 mmol/L | HDL-C [1, 4]: 3.88 mmol/L | LDL-C [1, 4]: 5.56 mmol/L | TG [1, 4]: 6.74 mmol/L | contents of cholesterol (CHOL), triglyceride (TG) and low density lipoprotein (LDL-C) in the blood [1]: significantly reduced | AUC(0-t) (Rat pharmacokinetics; iv): 2720 ng·h/mL | Cmax (Rat pharmacokinetics; iv): 2740 ng/mL | Tmax (Rat pharmacokinetics; iv): 0.083 h | half-life (Rat pharmacokinetics; iv): 1.88 h | AUC(0-inf) (Rat pharmacokinetics; iv): 2730 ng·h/mL | clearance (Rat pharmacokinetics; iv): 61 mL/min/kg | MRT inf (Rat pharmacokinetics; iv): 1.7 h | Vd (Rat pharmacokinetics; iv): 6.41 L/kg | AUC(0-t) (Rat pharmacokinetics; po): 334 ng·h/mL | Cmax (Rat pharmacokinetics; po): 62 ng/mL | Tmax (Rat pharmacokinetics; po): 4 h | bioavailability (Rat pharmacokinetics; po): 6.2% | half-life (Rat pharmacokinetics; po): 0.71 h | AUC(0-inf) (Rat pharmacokinetics; po): 335 ng·h/mL | MRT inf (Rat pharmacokinetics; po): 4.8 h

Compound: COc1ccc2c(c1)c1c(n2CO)CN2CCc3cc(OCc4cccc(F)c4)c(OC)cc3C2C1 (centres unmarked) [Example A61, (3-((3-fluorobenzyl)oxy)-2,12-dimethoxy-5,6,14,14a-tetrahydroindolo[3′,2′:4,5]pyridine[2,1-a]isoquinoline-9(8H)-yl)methanol]
activity at 5 µM (HepG2 cells): 165% | IC50 [2, 5]: 4.53 µM | TC ([1]; Dose 30, oral): 37.11 ± 11.19 mmol/L | TC ([1]; Dose 100, oral): 22.57 ± 6.37 mmol/L

Compound: COc1ccc2c(c1)c1c(n2CO)CN2CCc3cc(OCc4ccccc4F)c(OC)cc3C2C1 (centres unmarked) [Example A63, (3-((2-fluorobenzyl)oxy)-2,12-dimethoxy-5,6,14,14a-tetrahydroindolo[3′,2′:4,5]pyridine[2,1-a]isoquinoline-9(8H)-yl)methanol]
activity at 5 µM (HepG2 cells): 138% | IC50 [2, 5]: 57.7 µM

Compound: COc1ccc2c(c1)c1c(n2CO)CN2CCc3cc(OCc4ccc(C)cc4)c(OC)cc3C2C1 (centres unmarked) [Example A69, (2,12-Dimethoxy-3-((4-methylbenzyl)oxy)-5,6,14,14a-tetrahydroindolo[3′,2′:4,5]pyridine[2,1-a]isoquinoline-9(8H)-yl)methanol]
activity at 5 µM (HepG2 cells): 140% | IC50 [2, 5]: > 100 µM

Compound: COc1ccc2[nH]c3c(c2c1)CC1c2cc(OC)c(OCc4ccccc4)cc2CCN1C3c1ccc(F)cc1 (centres unmarked) [Example B55, 3-(benzyloxy)-8-(4-fluorophenyl)-2,12-dimethoxy-5,6,8,9,14,14a-hexahydroindole[3′,2′:4,5]pyridine[2,1-a]isoquinoline]
activity at 5 µM (HepG2 cells): 125% | IC50 [2, 5]: > 100 µM

Compound: COc1ccc2[nH]c3c(c2c1)CC1c2cc(OCc4ccccc4F)c(OC)cc2CCN1C3 (centres unmarked) [Example C9, 2-((2-Fluorobenzyl)oxo)-3,12-dimethoxy-5,6,8,9,14,14a-hexahydroindole[3′,2′:4,5]pyridine[2,1-a]isoquinoline]
TC ([1]; Dose 30, oral): 36.87 ± 23.13 mmol/L

Compound: COc1cc2c(cc1OCc1cccc(C)c1)CCN1Cc3[nH]c4ccccc4c3CC21 (centres unmarked) [Example C107, 2-methoxy-3-((3-methylbenzyl)oxo)-5,6,8,9,14,14a-hexahydroindolo[3′,2′:4,5]pyridine[2,1-a]isoquinoline]
activity at 5 µM (HepG2 cells): 69.5%

Compound: CCOc1ccccc1OCCN[C@H](C)Cc1ccc(OC)c(S(N)(=O)=O)c1 [Positive control, Tamsulosin, reference compound]
activity at 5 µM (HepG2 cells): 138%

Second part, led by results:

IC50 [2, 5]: 6.58 µM | IC50 ([2]; statement in text on Table 2, read-out: antagonistic activity to α1A-AR): < 10 µM
Compound: COc1ccc2[nH]c3c(c2c1)CC1c2cc(OC)c(OCc4ccc(F)cc4)cc2CCN1C3 (centres unmarked) [Example C49, 3-((4-Fluorobenzyl)oxo)-2,12-dimethoxy-5,6,8,9,14,14a-hexahydroindole[3′,2′:4,5]pyridine[2,1-a]isoquinoline]
activity at 5 µM (HepG2 cells): 194%

IC50 [2, 5]: 17.5 µM
Compound: COc1ccc2[nH]c3c(c2c1)CC1c2cc(OC)c(OCc4ccccc4F)cc2CCN1C3 (centres unmarked) [Example C53, 3-((2-Fluorobenzyl)oxo)-2,12-dimethoxy-5,6,8,9,14,14a-hexahydroindole[3′,2′:4,5]pyridine[2,1-a]isoquinoline]
activity at 5 µM (HepG2 cells): 112%

IC50 [2, 5]: > 100 µM
Compound: COc1ccc2[nH]c3c(c2c1)CC1c2cc(OC)c(OCc4ccc(C)cc4)cc2CCN1C3 (centres unmarked) [Example C59]
activity at 5 µM (HepG2 cells): 147%
